What all share (experiment): in vitro susceptibility, MIC by mini broth dilution
Assay type in all cases: cell-based

In test [1] the test system is Staphylococcus aureus CVCC26003. Particulars: strain CVCC26003. Summed up:
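S. aureus CVCC26003 was revived and subcultured twice, 20 h each at 35° C, on solid medium, then diluted 1:200 in CAMHB liquid medium. Compounds received an 11-step two-fold DMSO dilution in parallel duplicate rows. MIC was read by mini broth dilution per NCCLS guidance.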

Test [2] has as its system Actinobacillus pleuropneumoniae CVCC262. Conditions: strain CVCC262. A digest of the protocol: (§1)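 NCCLS-based mini broth dilution; inoculum from twice-streaked 35° C/20 h cultures, 1:200 in broth; compound two-fold series in DMSO, 11 steps, duplicates.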
In a further test the test system is Haemophilus parasuis. A digest of the protocol:
as §1

The subject of test [3] is Streptococcus equines CVCC556. Particulars: strain CVCC556. Summed up:
as §1

The test system of test [4] is Pasteurella multocida CVCC399. Conditions: strain CVCC399. Summed up: as §1

For `CC[C@H]1OC(=O)[C@H](C)[C@H](O[C@H]2C[C@@](C)(OC)[C@](O)(CNCCc3ccncc3)[C@H](C)O2)[C@H](C)[C@@H](O[C@@H]2O[C@H](C)C[C@H](N(C)C)[C@H]2O)[C@](C)(O)C[C@@H](C)NC[C@H](C)[C@@H](O)[C@]1(C)O` [syzx-64], the “MIC values, Staphylococcus aureus CVCC26003” value in test [1] is on record as “≦0.25 ug/mi”. Besides, the “MIC values, Actinobacillus pleuropneumoniae CVCC262” value in test [2] worked out at 0.5 ug/mi. The “MIC values, Haemophilus parasuis” value in the test with Haemophilus parasuis is recorded as “≦0.25 ug/mi”. Also, in test [3], the “MIC values, Streptococcus equines CVCC556” value was determined as 0.25 ug/mi. The “MIC values, Pasteurella multocida CVCC399” value in test [4] came to 0.25 ug/mi.

In the case of `CC[C@H]1OC(=O)[C@H](C)[C@@H](O[C@H]2C[C@@](C)(OC)[C@](O)(CNc3ccccc3F)[C@H](C)O2)[C@H](C)[C@@H](O[C@@H]2O[C@H](C)C[C@H](N(C)C)[C@H]2O)[C@](C)(O)C[C@@H](C)NC[C@H](C)[C@@H](O)[C@]1(C)O` [syzx-68, (2R,3S,4R,5S,8R,10R,11R,12S,13S,14R)-13-[(2,6-dideoxy-3-C-methyl-3-O-methyl-4-C-[(2-fluoro-phenyl-amino)-methyl]-α-L-ribopyranosyl)oxy]-2-ethyl-3,4,10-trihydroxy-3,5,8,10,12,14-hexamethyl-11-[[3,4,6-trideoxy-3-(dimethylamino)-β-D-xylo-hexopyranosy]oxy]-1-oxa-7-azacyclopentadecan-15-one], the “MIC values, Staphylococcus aureus CVCC26003” value in test [1] was “≦0.25 ug/mi”. Moreover, the “MIC values, Actinobacillus pleuropneumoniae CVCC262” value in test [2] is recorded as 8 ug/mi. In the test on Haemophilus parasuis, the “MIC values, Haemophilus parasuis” value is “≦0.25 ug/mi”. The “MIC values, Streptococcus equines CVCC556” value in test [3] is recorded as “≦0.25 ug/mi”. Moreover, the “MIC values, Pasteurella multocida CVCC399” value in test [4] is 8 ug/mi.

For `CC[C@H]1OC(=O)[C@H](C)[C@@H](O[C@H]2C[C@@](C)(OC)[C@](O)(CNCCCN3CCOCC3)[C@H](C)O2)[C@H](C)[C@@H](O[C@@H]2O[C@H](C)C[C@H](N(C)C)[C@H]2O)[C@](C)(O)C[C@@H](C)NC[C@H](C)[C@@H](O)[C@]1(C)O` [syzx-69, (2R,3S,4R,5S,8R,10R,11R,12S,13S,14R)-13-[(2,6-dideoxy-3-C-methyl-3-O-methyl-4-C-[(3-morpholinyl-propyl-amino)-methyl]-α-L-ribopyranosyl)oxy]-2-ethyl-3,4,10-trihydroxy-3,5,8,10,12,14-hexamethyl-11-[[3,4,6-trideoxy-3-(dimethylamino)-β-D-xylo-hexopyranosy]oxy]-1-oxa-7-azacyclopentadecan-15-one], in test [1], the “MIC values, Staphylococcus aureus CVCC26003” value is 1 ug/mi. In addition, in test [2], the “MIC values, Actinobacillus pleuropneumoniae CVCC262” value amounted to 1 ug/mi. Further, the “MIC values, Haemophilus parasuis” value with Haemophilus parasuis amounted to 1 ug/mi. Moreover, the “MIC values, Streptococcus equines CVCC556” value in test [3] was 0.5 ug/mi. In addition, the “MIC values, Pasteurella multocida CVCC399” value in test [4] amounted to 0.5 ug/mi.

For the compound `CC[C@H]1OC(=O)[C@H](C)[C@@H](O[C@H]2C[C@@](C)(OC)[C@](O)(CNCc3ccco3)[C@H](C)O2)[C@H](C)[C@@H](O[C@@H]2O[C@H](C)C[C@H](N(C)C)[C@H]2O)[C@](C)(O)C[C@@H](C)NC[C@H](C)[C@@H](O)[C@]1(C)O` [syzx-71, (2R,3S,4R,5S,8R,10R,11R,12S,13S,14R)-13-[(2,6-dideoxy-3-C-methyl-3-O-methyl-4-C-[(2-furfuryl-amino)-methyl]-α-L-ribopyranosyl)oxy]-2-ethyl-3,4,10-trihydroxy-3,5,8,10,12,14-hexamethyl-11-[[3,4,6-trideoxy-3-(dimethylamino)-β-D-xylo-hexopyranosy]oxy]-1-oxa-7-azacyclopentadecan-15-one], the “MIC values, Staphylococcus aureus CVCC26003” value in test [1] worked out at 8 ug/mi. Also, the “MIC values, Actinobacillus pleuropneumoniae CVCC262” value in test [2] was 16 ug/mi. Also, the “MIC values, Haemophilus parasuis” value in the test with Haemophilus parasuis turned out to be 8 ug/mi. Moreover, the “MIC values, Streptococcus equines CVCC556” value in test [3] is “≦0.25 ug/mi”. Moreover, in test [4], the “MIC values, Pasteurella multocida CVCC399” value was “≦0.25 ug/mi”.

With `CC[C@H]1OC(=O)[C@H](C)[C@@H](O[C@H]2C[C@@](C)(OC)[C@](O)(CNCc3cccc(N)c3)[C@H](C)O2)[C@H](C)[C@@H](O[C@@H]2O[C@H](C)C[C@H](N(C)C)[C@H]2O)[C@](C)(O)C[C@@H](C)NC[C@H](C)[C@@H](O)[C@]1(C)O` [syzx-72, (2R,3S,4R,5S,8R,10R,11R,12S,13S,14R)-13-[(2,6-dideoxy-3-C-methyl-3-O-methyl-4-C-[(3-aminobenzyl-amino)-methyl]-α-L-ribopyranosyl)oxy]-2-ethyl-3,4,10-trihydroxy-3,5,8,10,12,14-hexamethyl-11-[[3,4,6-trideoxy-3-(dimethylamino)-β-D-xylo-hexopyranosy]oxy]-1-oxa-7-azacyclopentadecan-15-one], the “MIC values, Staphylococcus aureus CVCC26003” value in test [1] worked out at 1 ug/mi. The “MIC values, Actinobacillus pleuropneumoniae CVCC262” value in test [2] came to 16 ug/mi. In addition, in the test with Haemophilus parasuis, the “MIC values, Haemophilus parasuis” value was 0.25 ug/mi. Also, the “MIC values, Streptococcus equines CVCC556” value in test [3] is given as “≦0.25 ug/mi”. Besides, the “MIC values, Pasteurella multocida CVCC399” value in test [4] worked out at 1 ug/mi.

With `CC[C@H]1OC(=O)[C@H](C)[C@@H](O[C@H]2C[C@@](C)(OC)[C@](O)(C=NNc3ccccc3)[C@H](C)O2)[C@H](C)[C@@H](O[C@@H]2O[C@H](C)C[C@H](N(C)C)[C@H]2O)[C@](C)(O)C[C@@H](C)NC[C@H](C)[C@@H](O)[C@]1(C)O` [syzx-73, (2R,3S,4R,5S,8R,10R,11R,12S,13S,14R)-13-[(2,6-dideoxy-3-C-methyl-3-O-methyl-4-C-[(phenylhydrazono)-methyl]-α-L-ribopyranosyl)oxy]-2-ethyl-3,4,10-trihydroxy-3,5,8,10,12,14-hexamethyl-11-[[3,4,6-trideoxy-3-(dimethylamino)-β-D-xylo-hexopyranosy]oxy]-1-oxa-7-azacyclopentadecan-15-one], in test [1], the “MIC values, Staphylococcus aureus CVCC26003” value is 1 ug/mi. Moreover, the “MIC values, Actinobacillus pleuropneumoniae CVCC262” value in test [2] was 1 ug/mi. In addition, in the test on Haemophilus parasuis, the “MIC values, Haemophilus parasuis” value is 1 ug/mi. Moreover, the “MIC values, Streptococcus equines CVCC556” value in test [3] is listed as 0.5 ug/mi. The “MIC values, Pasteurella multocida CVCC399” value in test [4] is listed as 2 ug/mi.

On to `CC[C@H]1OC(=O)[C@H](C)[C@@H](O[C@H]2C[C@@](C)(OC)[C@](O)(CNCCc3c[nH]c4ccccc34)[C@H](C)O2)[C@H](C)[C@@H](O[C@@H]2O[C@H](C)C[C@H](N(C)C)[C@H]2O)[C@](C)(O)C[C@@H](C)NC[C@H](C)[C@@H](O)[C@]1(C)O` [syzx-74, (2R,3S,4R,5S,8R,10R,11R,12S,13S,14R)-13-[(2,6-dideoxy-3-C-methyl-3-O-methyl-4-C-{[2-(1H-indol-3-yl)-ethylamino]-methyl}-α-L-ribopyranosyl)oxy]-2-ethyl-3,4,10-trihydroxy-3,5,8,10,12,14-hexamethyl-11-[[3,4,6-trideoxy-3-(dimethylamino)-β-D-xylo-hexopyranosy]oxy]-1-oxa-7-azacyclopentadecan-15-one], for which, in test [1], the “MIC values, Staphylococcus aureus CVCC26003” value is listed as 1 ug/mi. Moreover, the “MIC values, Actinobacillus pleuropneumoniae CVCC262” value in test [2] is on record as 1 ug/mi. The “MIC values, Haemophilus parasuis” value against Haemophilus parasuis was 2 ug/mi. For the same compound, in test [3], the “MIC values, Streptococcus equines CVCC556” value stood at 0.5 ug/mi. The “MIC values, Pasteurella multocida CVCC399” value in test [4] worked out at 1 ug/mi.

`CC[C@H]1OC(=O)[C@H](C)[C@@H](O[C@H]2C[C@@](C)(OC)[C@](O)(CNCCCCl)[C@H](C)O2)[C@H](C)[C@@H](O[C@@H]2O[C@H](C)C[C@H](N(C)C)[C@H]2O)[C@](C)(O)C[C@@H](C)NC[C@H](C)[C@@H](O)[C@]1(C)O` [syzx-75, (2R,3S,4R,5S,8R,10R,11R,12S,13S,14R)-13-[(2,6-dideoxy-3-C-methyl-3-O-methyl-4-C-[(3-chloropropyl-amino)-methyl]-α-L-ribopyranosyl)oxy]-2-ethyl-3,4,10-trihydroxy-3,5,8,10,12,14-hexamethyl-11-[[3,4,6-trideoxy-3-(dimethylamino)-β-D-xylo-hexopyranosy]oxy]-1-oxa-7-azacyclopentadecan-15-one]: the “MIC values, Staphylococcus aureus CVCC26003” value in test [1] is given as 4 ug/mi. In test [2], the “MIC values, Actinobacillus pleuropneumoniae CVCC262” value is 64 ug/mi. Also, the “MIC values, Haemophilus parasuis” value with Haemophilus parasuis is on record as 4 ug/mi. In test [3], the “MIC values, Streptococcus equines CVCC556” value came out at 4 ug/mi. Besides, the “MIC values, Pasteurella multocida CVCC399” value in test [4] is reported as 8 ug/mi.

As to `CC[C@H]1OC(=O)[C@H](C)[C@@H](O[C@H]2C[C@@](C)(OC)[C@](O)(CNc3cc(OC)cc(OC)c3)[C@H](C)O2)[C@H](C)[C@@H](O[C@@H]2O[C@H](C)C[C@H](N(C)C)[C@H]2O)[C@](C)(O)C[C@@H](C)NC[C@H](C)[C@@H](O)[C@]1(C)O` [syzx-76, (2R,3S,4R,5S,8R,10R,11R,12S,13S,14R)-13-[(2,6-dideoxy-3-C-methyl-3-O-methyl-4-C-[(3,5-dimethoxyphenyl-amino)-methyl]-α-L-ribopyranosyl)oxy]-2-ethyl-3,4,10-trihydroxy-3,5,8,10,12,14-hexamethyl-11-[[3,4,6-trideoxy-3-(dimethylamino)-β-D-xylo-hexopyranosy]oxy]-1-oxa-7-azacyclopentadecan-15-one], the “MIC values, Staphylococcus aureus CVCC26003” value in test [1] was found to be 2 ug/mi. Also, in test [2], the “MIC values, Actinobacillus pleuropneumoniae CVCC262” value is recorded as 64 ug/mi. Further, the “MIC values, Haemophilus parasuis” value with Haemophilus parasuis was determined as 1 ug/mi. Besides, in test [3], the “MIC values, Streptococcus equines CVCC556” value is recorded as 2 ug/mi. For the same compound, in test [4], the “MIC values, Pasteurella multocida CVCC399” value stood at 4 ug/mi.
